Laboratory results: article PMC13267291, “In vivo functional profiling and structural characterization of the human GLP1R A316T variant” (Science Advances, 2026)
Blank lines part the entries; values can stand above or below the substance they belong to.

Experiments:
[1] = tested on: hGLP1R^A316T/A316T versus hGLP1R^+/+ mice; test: IPGTT acutely and 6 hours after GLP-1RA, chow-fed homozygous mice; format: in vivo, mouse; conditions: chow diet; for Agonist-specific glycemic response (ΔAUC), 6-hour time point, A316T/A316T versus +/+: IPGTT 6 hours postadministration, n = 9; for Agonist-specific glycemic response (ΔAUC), 6-hour time point, A316T/A316T versus +/+ / Agonist-specific glycemic response (ΔAUC, agonist- minus vehicle-treated AUC), acute, A316T/A316T versus +/+: Fig. 1J,K; for Agonist-specific glycemic response (ΔAUC, agonist- minus vehicle-treated AUC), acute, A316T/A316T versus +/+: acute IPGTT, n = 9 per genotype
Protocol: To examine acute and prolonged glycemic responses to GLP-1RAs, animals were fasted for 2 hours, starting at 8 a.m. on the morning of the experiments, before IPGTTs. GLP-1RAs were then coadministered at the indicated concentrations with 20% (w/v) D-glucose via intraperitoneal injection at weight-adjusted volumes. Baseline glucose readings were taken via tail venipuncture, and subsequent readings were taken at various time points after glucose ± GLP-1RA administration as for the OGTTs (0-hour acute IPGTTs). For GLP-1RAs with shorter half-lives (exendin-4 and exendin-F1), IPGTTs were repeated 6 hours after the start of the initial IPGTT, with continued fasting. For the extended half-life GLP-1RA semaglutide, IPGTTs were performed 24 and 72 hours after GLP-1RA administration, with access to food restored at the end of each IPGTT. The in vivo IPGTT studies were performed with a crossover design, with each mouse receiving vehicle and each GLP-1RA treatment with washout periods of at least 1 week between the different GLP-1RA treatments.

[2] = tested on: hGLP1R^A316T-SmBiT versus hGLP1R^WT-SmBiT; test: β-arrestin 2 recruitment by NanoBiT complementation; format: cell-based, rat
Protocol: For mini-Gs recruitment, INS-1 832/3 Glp1r^−/− cells were seeded in 6-cm dishes and transiently cotransfected with 1.7 μg each of hGLP1R^WT or ^A316T-SmBiT and LgBiT-mini-Gs constructs for 24 hours. Cells were then detached, resuspended in Hanks’ balanced salt solution (HBSS) containing NanoGlo Live Cell Reagent (1:20; Promega) with furimazine, and seeded onto white 96-well half-area plates. Baseline luminescence was immediately recorded over 8 min at 37°C in a Flexstation 3 plate reader (Molecular Devices) and for a further 30 min after GLP-1RA addition at serial doses up to 100 nM. Readings were taken every 30 s and normalized to average well baseline, and average vehicle-induced signal was subtracted to establish the agonist-induced effect. To measure β-arrestin 2 recruitment, cells were processed as above with slight modifications: INS-1 832/3 Glp1r^−/− cells were cotransfected with 1.77 μg each of hGLP1R^WT or ^A316T-SmBiT and LgBiT–β-arrestin 2 plasmids for 24 hours, and GLP-1RAs were added at serial doses up to 1 μM. AUCs were calculated for each agonist concentration and fitted to log(agonist) versus response four-parameter curves using GraphPad Prism 10.1.2, with errors propagated for mini-Gs over β-arrestin 2 recruitment bias calculations.

[3] = tested on: SNAP/FLAG-hGLP1R^A316T versus ^WT; test: Insulin secretion in transduced primary human islets; format: cell-based; conditions: 11 mM glucose + 100 nM; n = 4; Fig. 6G,H
[4] = tested on: hGLP1R^A316T/+ versus hGLP1R^+/+ mice; test: IPGTT after GLP-1RA, HFHS-fed heterozygous mice; format: in vivo, mouse; conditions: HFHS diet; 2 nmol/kg; n = 7; fig. S5G,H
Protocol: All animal procedures were approved by the British Home Office under the UK animals (Scientific Procedures) Act 1986 (Project License number PP7151519 to A. Martinez-Sanchez, Imperial College London, UK) and from the local ethical committee (Animal Welfare and Ethics Review Board) at the Central Biological Services unit of Imperial College London. Animals were housed in groups of up to four adult mice in individually ventilated cages under controlled conditions at 21° to 23°C with 12-hour:12-hour light-to-dark cycles (lights on at 07:00). Ad libitum access to water and feed was provided unless otherwise stated. Lean mice were fed a standard chow diet [RM1 (E); Special Diet Services]. For HFHS diet studies, animals were put on a 58 kcal % fat and sucrose diet (D12331, Research Diets Inc.) ad libitum for 10 to 14 weeks before experiments.
To examine acute and prolonged glycemic responses to GLP-1RAs, animals were fasted for 2 hours, starting at 8 a.m. on the morning of the experiments, before IPGTTs. GLP-1RAs were then coadministered at the indicated concentrations with 20% (w/v) D-glucose via intraperitoneal injection at weight-adjusted volumes. Baseline glucose readings were taken via tail venipuncture, and subsequent readings were taken at various time points after glucose ± GLP-1RA administration as for the OGTTs (0-hour acute IPGTTs). […]

- Agonist-induced recruitment of β-arrestin 2, A316T versus WT, log(Emax/EC50) ([2]; serial doses up to 1 μM, n = 5, Fig. 7M): near-significant reduction
Substance: exendin-F1
- Agonist-specific glycemic response (ΔAUC), 6-hour time point, A316T/A316T versus +/+ ([1]; 2 nmol/kg ip): absent
- Agonist-specific glycemic response (ΔAUC, agonist- minus vehicle-treated AUC), acute, A316T/A316T versus +/+ ([1]; 2 nmol/kg ip): similarly reduced
- IPGTT glucose responses (AUC), A316T/A316T versus +/+ ([1]; 2 nmol/kg ip, acutely and 6 hours postagonist, Fig. 1F-I): without reaching statistical significance
- Desensitization at the 6-hour IPGTT versus exendin-4 ([1]; both mouse genotypes): reduced desensitization
- β-arrestin 2 over Gαs signaling bias, A316T versus WT ([2]; Δlog(Emax/EC50) βarr2 − mini-Gs, Fig. 7N): significant shift toward Gαs recruitment

Substance: exendin-4
- Agonist-specific glycemic response (ΔAUC), 6-hour time point, A316T/A316T versus +/+ ([1]; 2 nmol/kg ip): paradoxical increase in blood glucose levels compared to vehicle
- Agonist-specific glycemic response (ΔAUC, agonist- minus vehicle-treated AUC), acute, A316T/A316T versus +/+ ([1]; 2 nmol/kg ip): significantly reduced
- Agonist-induced potentiation of insulin secretion, A316T versus WT [3]: near-significant loss
- Desensitization 6 hours postagonist, A316T/+ versus +/+ [4]: significantly increased desensitization
